According to the supplement of paper PMC7801607:

Test system: Plasmodium falciparum Dd2 asexual blood stage

IC50 [µM]	Compound
> 5	CC1(C)Cc2c(C#N)c(SCCc3ccccc3)nc(N3CCOCC3)c2CO1
> 5	Cc1ccc(N2CCC(CCOc3ccc(S(C)(=O)=O)cc3)CC2)nn1
> 5	OCCCCn1cnc2c(O)nc(NCc3ccc(Cl)c(Cl)c3)nc21
> 5	CN(C(=O)C1(c2ccc(Cl)cc2)CCC1)c1ccccc1
> 5	CS(=O)(=O)c1ccc(Oc2ccc(Cl)cc2)cc1
> 5	O=C(CSc1nnc(Br)n1-c1ccc(C2CC2)c2ccccc12)Nc1ccc(C(=O)O)cc1Cl
2.41	Clc1cc2nc(C3CCNCC3)n(Cc3ccc(CNCCc4cnc[nH]4)cc3)c2cc1Cl
> 5	CCCCCOc1ccc(/C=C2\Oc3c(ccc(O)c3O)C2=O)c(O)c1
> 5	O=C(/C=C\n1cnc(-c2cc(C(F)(F)F)cc(C(F)(F)F)c2)n1)NNc1ccccn1
4.29	O=C1c2cccc3cccc(c23)C(=O)N1CC1CO1 (stereo not drawn)
> 5	Nc1ccc2oc(=O)ccc2c1I
> 5	c1ccc(Cn2c(-c3ccccn3)nc3ccccc32)cc1
> 5	CNCC(=O)OCc1cccnc1N(C)C(=O)OC(C)[n+]1cnn(C[C@](O)(c2cc(F)ccc2F)[C@@H](C)c2nc(-c3ccc(C#N)cc3)cs2)c1 (stereo partly drawn)
> 5	COC(=O)Nc1nc2c(C)cccc2[nH]1
> 5	CC(C)n1cnc2c(NCc3ccccc3)nc(NCc3ccccc3)nc21
> 5	CCc1ccc(C2CC(C(F)(F)F)n3ncc(C(=O)NCc4ccc(OC)cc4)c3N2)cc1 (stereo not drawn)
> 5	Cc1cc(Nc2ccc(F)cc2)nc(SCc2nc3ccccc3[nH]2)n1
> 5	O=C(Nc1ccccc1C(=O)O)c1cccc(Oc2ccccc2)c1
> 5	Cn1c2ccccc2c(=O)c2c(O)cccc21
> 5	Nc1nc(=O)c(Br)c(-c2cccc(Cl)c2)[nH]1

IC50 [µM]	Compound
> 5	CCc1oc2ccccc2c1C(=O)c1ccc(O)cc1
> 5	O=c1cc(Nc2ccc3ccccc3c2)[nH]c(=O)[nH]1
> 5	O=c1cc(OCc2ccccc2)ccn1Cc1ccccc1
> 5	C[C@H]1[C@@H](c2cccc(C(F)(F)F)c2)OC(=O)N1C(=O)NCc1cncc2ccccc12
> 5	Cc1nc(Nc2ccc(F)cc2)nc(N2CCc3ccccc3C2C)c1C (stereo not drawn)
> 5	CONC(=N)c1ccc(-c2ccc(-c3ccc(C(=N)NOC)cc3)o2)cc1
> 5	COc1ccc(-n2cnc3cc(NCc4ccco4)ccc32)cc1
> 5	Oc1ccc2[nH]c(-c3ccccc3)nc2c1
> 5	CCCNc1ccc(S(=O)(=O)Nc2cc(C)on2)cc1
> 5	Oc1cc(-c2cccc3ccccc23)[nH]n1
> 5	Cc1cc(C)n2nc(C(=O)NS(=O)(=O)c3c(C)cccc3OC(F)(F)F)nc2n1
> 5	C[C@@H](O)[C@H](N)C(=O)NS(=O)(=O)c1cccc(-c2ccc3[nH]ncc3c2)c1
> 5	Cc1[nH]c2ccccc2c1CC(=O)N[C@@H](Cc1ccccc1)C(=O)N(C)c1ccccc1
> 5	COC(=O)Nc1nc2cc(S(=O)c3ccccc3)ccc2[nH]1 (stereo not drawn)
> 5	O=C(c1cc(O)nc2ccccc12)N1CCN(c2ccccc2)CC1
> 5	Cc1ccccc1NC(=O)Nc1cccc([N+](=O)[O-])c1
> 5	C[C@H](c1cccc2ccccc12)N(C)Cc1ccccc1
> 5	CC(C)Nc1ncnc2c1cnn2-c1ccc(Cl)cc1
> 5	CC(Cc1ccccc1)C(=O)Nc1ccc(Cl)cc1C(=O)O (stereo not drawn)
> 5	COC(=O)Nc1nc2cc(Sc3ccccc3)ccc2[nH]1

IC50 [µM]	Compound
> 5	COc1cc(C2C3=C(CC(C)(C)CC3=O)Nc3ccccc3N2C(C)=O)ccc1OCc1ccccc1 (stereo not drawn)
> 5	COCCn1cnc2c(=O)[nH]c(Nc3ccccc3)nc21
> 5	CN(O)C(=O)c1cc2c(CN3CCC[C@H]3C(N)=O)cn(Cc3ccc(F)cc3)c2cn1
> 5	Nc1nnc(-c2ccc(Cl)cc2)s1
> 5	CNC(=O)C1O[C@@H](n2cnc3c(NCc4cccc(I)c4)nc(Cl)nc32)[C@H](O)[C@@H]1O (stereo partly drawn)
> 5	Nc1ccc(-c2nc3cc(C(F)(F)F)ccc3n2C23CC4CC(CC(C4)C2)C3)cc1
> 5	O=P(O)(O)C(CCCc1cccc(Oc2ccccc2)c1)S(=O)(=O)O (stereo not drawn)
> 5	CC(C)Oc1ccc(-n2cnc3cc(/C=C\c4ccc(C(C)(C)O)cc4)ccc32)cc1
> 5	CCOC(=O)/C=C/[C@H](C[C@@H]1CCNC1=O)NC(=O)[C@@H](CC(=O)[C@@H](NC(=O)c1cc(C)on1)C(C)C)Cc1ccc(F)cc1
> 5	CCOC(=O)N[C@@H]1CC[C@@H]2[C@@H](C1)C[C@H]1C(=O)O[C@H](C)[C@H]1[C@H]2/C=C/c1ccc(-c2cccc(F)c2)cn1
> 5	Cc1nc2ccc(Cl)cc2c(-c2ccccc2)c1CC(=O)O
> 5	C[C@@H](c1nc(-c2ccc(C#N)cc2)cs1)[C@](O)(Cn1cncn1)c1ccc(F)cc1F
> 5	O=C(/C=C/n1cnc(-c2cc(C(F)(F)F)cc(C(F)(F)F)c2)n1)NNc1cnccn1
> 5	Cc1cc(CCOc2c(C)cc(-c3nnn(C)n3)cc2C)on1
> 5	O=C(O)C[C@H]1CC[C@H](c2ccc(-c3ccc(Nc4ccc(C(F)(F)F)nc4)cn3)cc2)CC1
> 5	CCNC(=O)Nc1cc(-c2ccccc2)c(-c2cncc(C(=O)O)c2)cn1
> 5	CC(=O)N1c2ccccc2NC2=C(C(=O)CC(C)(C)C2)C1c1ccc(OCc2ccccc2)cc1 (stereo not drawn)
> 5	Clc1cccc(-c2nnc(-c3ccccc3)o2)c1
> 5	CCCCSc1nc(N)c2[nH]c(=O)c(=O)n(Cc3ccccc3)c2n1
> 5	O=C1[C@H](CC[C@H](O)c2ccc(F)cc2)[C@@H](c2ccc(O)cc2)N1c1ccc(F)cc1

The next lines start with the molecule.

Compound	IC50 [µM]
O=C1NC(=O)C(Br)=C1Br	> 5
CCCCCCCCCN1C[C@@H](O)[C@H](O)[C@@H](O)[C@@H]1CO	> 5
O=C1NC(=S)N/C1=C\c1cc(Br)cc(Br)c1O	> 5
C[N+]1(C)CCCC(OC(=O)C(O)(c2ccccc2)c2ccccc2)C1 (stereo not drawn)	> 5
O=C(O)[C@H]1C2CCC(CC2)[C@@H]1Nc1nc(-c2c[nH]c3ncc(F)cc23)ncc1F	> 5
O=[N+]([O-])c1cn(Cc2nc(O)nc(O)c2Br)cn1	> 5
Fc1ccc2c(/C=C/c3nnn[nH]3)c[nH]c2c1	> 5
Nc1nc2c(ncn2/C=C2/CC2(CO)CO)c(=O)[nH]1	> 5
CCc1c(OCC2CCC2)c2cc(F)ccc2[nH]c1=O	> 5
O=C1CCC(N2C(=O)c3ccccc3C2=O)C(=O)N1 (stereo not drawn)	> 5
NCc1ccc(S(N)(=O)=O)cc1	> 5
NC[C@H]1O[C@H](O[C@H]2[C@H](O)[C@@H](O[C@H]3O[C@H](CO)[C@@H](O)[C@H](N)[C@H]3O)[C@H](N)C[C@@H]2N)[C@H](N)C[C@@H]1O	> 5
CC1(C)CC(NC(=O)C(=O)Nc2ccc(Cl)cc2)CC(C)(C)N1	> 5
C[C@@H]1O[C@@H]1P(=O)(O)O	> 5
CCN(CC)S(=O)(=O)c1ccc(Cl)c(C(=O)Nc2sc3c(c2C#N)CCCC3)c1	> 5
O=S(=O)(NCB(O)O)c1cc2c(Cl)ccc(Cl)c2s1	> 5
CC(C)Oc1cccc(NC(=O)c2ccccc2C(F)(F)F)c1	> 5
O=[N+]([O-])/C(Br)=C/c1ccc(Br)o1	> 5
O=C(O)c1ccccc1Sc1ncnc2sc3c(c12)CCC3	> 5
COc1ccc(C2CNC(=O)C2)cc1OC1CCCC1 (stereo not drawn)	> 5
CC1(C)[C@H](C(=O)O)N2C(=O)C[C@H]2S1(=O)=O	> 5
CN1C(=O)C(c2ccccc2)C(=O)N(c2ccccc2)c2cc(C(F)(F)F)ccc21 (stereo not drawn)	> 5

Compound	IC50 [µM]
CCC(CC)[C@H](NC(C)=O)[C@@H]1[C@H](O)[C@@H](C(=O)O)C[C@H]1NC(=N)N	> 5
Cc1cc(C2CCCCC2)n(O)c(=O)c1	4.8
Nc1nc(O)ncc1F	> 5
Cc1ncc([N+](=O)[O-])n1CC(C)O (stereo not drawn)	> 5
CC(N)C(=O)NC(CCCCN)C(=O)NC(CCCNC(=N)N)C(=O)NC(Cc1c[nH]cn1)C(=O)NC(Cc1c[nH]cn1)C(=O)NCC(=O)NC(Cc1ccc(O)cc1)C(=O)NC(CCCCN)C(=O)NC(CCCNC(=N)N)C(=O)NC(CCCCN)C(=O)NC(Cc1ccccc1)C(=O)NC(Cc1c[nH]cn1)C(N)=O (stereo not drawn)	> 5
O=C(O)CCNC(=O)c1ccccc1	> 5
Cc1cc(C)n(O)c(=O)c1	> 5
Nc1nc(NC2Cc3ccc(F)cc3C2)nc(N2CCCCC2)n1 (stereo not drawn)	> 5
NC[C@H]1OB(O)c2c(OCCCO)cccc21	> 5
N[C@@H]1CN(c2c(F)cc3c(=O)c(C(=O)O)cn([C@@H]4C[C@@H]4F)c3c2Cl)CC12CC2	> 5
CCCCCCCCC(CP(=O)(O)C(C)N)C(=O)O (stereo not drawn)	> 5
CCCCOC(=O)Nc1cc2nc(C3CCCCC3)[nH]c2cc1N(CC)CC	1.79
NC(=O)c1ccc(I)c([N+](=O)[O-])c1	> 5
CC[C@H]1OC(=O)[C@H](C)[C@@H](O[C@H]2C[C@@](C)(OC)[C@@H](O)[C@H](C)O2)[C@H](C)[C@@H](O[C@@H]2O[C@H](C)C[C@H](N(C)C)[C@H]2O)[C@](C)(O)C[C@@H](C)C(=O)[C@H](C)[C@@H](O)[C@]1(C)O	> 5
C[C@H]1CC[C@@]2(O)C(C)(C)[C@@H]3CC[C@@]2(C)[C@H]1C3	> 5
CCc1cc(CCCOc2c(C)cc(-c3noc(C(F)(F)F)n3)cc2C)on1	> 5
CC[N+]1(C/C2=C/CCCCCC2)CCC(NC(=O)C2c3cc(Cl)ccc3Oc3ccc(Cl)cc32)CC1 (stereo not drawn)	> 5
C[C@@]1(O)[C@H](O)[C@@H](CO)O[C@H]1n1ccc2c(N)ncnc21	> 5
COc1cc(C(C)(C)CCCC(C)C)cc(OC)c1OC	> 5
COC(=O)Nc1nc2ccccc2[nH]1	> 5
C[C@H]1CC[C@]2(NC1)O[C@H]1C[C@H]3[C@@H]4CC[C@H]5C[C@@H](O)CC[C@]5(C)[C@H]4CC[C@]3(C)[C@H]1[C@@H]2C	> 5
